This note sets out measurements from ChEMBL document CHEMBL5506004, “Optimizing drug-like properties of selective butyrylcholinesterase inhibitors for cognitive improvement: Enhancing aqueous solubility by disrupting molecular plane” (Eur J Med Chem, 2024).

Molecules are shown by their SMILES. Active and inactive are the calls of the source. No cut-off for these calls is given here.

Data set [1] is described as follows: Toxicity in Amyloid beta (1 to 42)-treated ICR mouse assessed as drug tolerance at 10 mg/kg, po administered daily for 12 days. It is filed as organism-based. The note with it: in vivo, 288 h, time 12 day.
A short description of data set [2]: Permeability of compound at 50 ug/ml incubated for 18 hrs by PAMPA. The following applies: dose 50 µg/ml, read-out: permeability. It is filed as ADME. Background: PAMPA measures passive passage across an artificial lipid membrane.
In data set [3] the target is T1, Cytochrome P450 1A2 (Homo sapiens, UniProt P05177).
T1 sequence (P05177 whole entry): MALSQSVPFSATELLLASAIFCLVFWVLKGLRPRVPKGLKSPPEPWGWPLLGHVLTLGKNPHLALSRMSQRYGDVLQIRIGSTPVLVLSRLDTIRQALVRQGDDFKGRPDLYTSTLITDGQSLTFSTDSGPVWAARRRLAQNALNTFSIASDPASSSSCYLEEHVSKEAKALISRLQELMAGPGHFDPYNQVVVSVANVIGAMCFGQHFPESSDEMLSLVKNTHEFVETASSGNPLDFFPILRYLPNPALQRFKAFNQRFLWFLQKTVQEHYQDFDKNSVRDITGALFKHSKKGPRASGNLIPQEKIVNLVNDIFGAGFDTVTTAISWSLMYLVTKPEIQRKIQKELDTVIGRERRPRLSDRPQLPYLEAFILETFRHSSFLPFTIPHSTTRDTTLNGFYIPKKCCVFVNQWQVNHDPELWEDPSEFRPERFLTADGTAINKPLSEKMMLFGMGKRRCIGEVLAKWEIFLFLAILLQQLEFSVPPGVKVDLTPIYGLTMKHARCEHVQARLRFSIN
Briefly: Inhibition of CYP1A2 in human liver microsomes at 10 uM in presence of NADPH-regenerating system by LC-MS/MS analysis. It is filed as ADME, Microsome. Background: Microsomes from liver hold many membrane-bound enzymes, among them those of drug oxidation.

Data set [4] in a line: AUC (0 to t) in plasma of ICR mouse at 10 mg/kg, po measured for 10 to 480 mins by spectroscopy. The format is ADME, organism-based. The following applies: time 10-480 min.
The nature of data set [5]: Half life in Sprague-Dawley rat at 10 mg/kg, po measured for 1 to 1440 mins by LC-MS/MS analysis. The format is ADME, organism-based. The note with it: in vivo, time 1-1440 min.
In data set [6] the target is CYP2D6 (Homo sapiens, UniProt P10635). Nature of the data set: Inhibition of CYP2D6 in human liver microsomes at 10 uM in presence of NADPH-regenerating system by LC-MS/MS analysis relative to control. It is filed as ADME, Microsome.
Sequence of CYP2D6 (P10635 whole entry): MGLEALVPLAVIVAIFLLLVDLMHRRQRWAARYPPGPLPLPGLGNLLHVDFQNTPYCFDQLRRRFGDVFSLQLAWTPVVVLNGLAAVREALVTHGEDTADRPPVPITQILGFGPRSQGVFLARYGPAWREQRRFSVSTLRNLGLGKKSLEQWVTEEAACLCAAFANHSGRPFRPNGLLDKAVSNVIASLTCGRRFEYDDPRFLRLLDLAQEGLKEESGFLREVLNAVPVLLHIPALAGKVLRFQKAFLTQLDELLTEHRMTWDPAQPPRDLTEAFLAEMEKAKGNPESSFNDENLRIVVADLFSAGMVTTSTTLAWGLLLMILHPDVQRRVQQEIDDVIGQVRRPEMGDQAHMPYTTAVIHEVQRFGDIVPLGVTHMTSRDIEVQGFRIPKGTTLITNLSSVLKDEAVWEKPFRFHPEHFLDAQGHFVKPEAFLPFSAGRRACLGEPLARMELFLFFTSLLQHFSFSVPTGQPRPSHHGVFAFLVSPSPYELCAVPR
Data set [7] concerns Mus musculus. Briefly: Cognitive enhancing effect in Amyloid beta (1 to 42)-treated ICR mouse assessed as reduction in trajectory uncertainty at 10 mg/kg, po administered daily measured after 7 to 12 days by Morris water maze test. It is filed as functional, organism-based. The following applies: time 7-12 day.
Data set [8] can be described thus: Toxicity in Amyloid beta (1 to 42)-treated ICR mouse assessed as body weight change at 10 mg/kg, po administered daily for 12 days. The format is organism-based. The note with it: in vivo, 288 h, time 12 day.
A short description of data set [9]: Ratio of Cmax in brain to plasma in ICR mouse at 10 mg/kg, po measured for 10 to 480 mins by spectroscopy. It is filed as ADME, organism-based. The note with it: time 10-480 min.
Data set [10] in a line: Ratio of AUC (0 to t) in brain to plasma in ICR mouse at 10 mg/kg, po measured for 10 to 480 mins by spectroscopy. The format is ADME, organism-based. The note with it: time 10-480 min.

Turning to `Nc1nonc1-c1nc2ccccc2n1CC(=O)Nc1ccc(CCN2CCOCC2)cc1`, the Activity result in [1] and in [8] was “Non-Toxic” throughout. The Papp at 18 h, 50 ug/ml in data set [2] stood at 6.64 ×10⁻⁶ cm/s. Besides, the “inhibition (INH)” value in data set [3] is given as “Not Active”. Besides, the exposure AUC(0-t) (as a rule, the area under the concentration-time curve up to a stated or last time point) in data set [4] worked out at 826 ng·h/mL. In addition, the half-life – broadly, how long it takes for the measured level to halve – in data set [5] was 6.77 h. In addition, the inhibition – broadly, the share of the control response that was lost under treatment – at 10 µM in [6] amounted to 0.89%. In [7], the outcome was Active. Also, the values for the Kp in data set [9] and in data set [10] were 0.15 and 0.32, respectively.
